Measured values: US12102631B2, “Quinolylnitrones for the treatment and prevention of a cerebral stroke or ischaemia” (ISQUAEMIA BIOTECH, S.L., priority 2018, dated 2024)

System: Carrageenan-induced rat paw edema
Assay: Inhibition of Carrageenan-induced rat paw edema
Format: in vivo, Fisher 344 rats
Conditions: 0.01 mmol/kg intraperitoneally; 3.5 h after Carrageenan
Procedure: Inhibition of the Carrageenan-induced edema. Edema was induced in the right hind paw of Fisher 344 rats (150-200 g) by the intradermal injection of 0.1 mL 2% Carrageenan in water. Both sexes were used. Females pregnant were excluded. Each group was composed of 6 animals. The experiment was performed twice for validation. The animals, which have been bred in our laboratory, were housed under standard conditions and received a diet of commercial food pellets and water ad libitum during the maintenance, but they were entirely fasted during the experiment period. Nitrone 23 as well as of the standard drug indomethacin in 0.01 mmol/kg body weight, were diluted in water with few drops of Tween 80 and ground in a mortar before use and they were given intraperitoneally simultaneously with the Carrageenan injection. The rats were euthanized 3.5 h after Carrageenan administration. The difference between the weight of the injected and uninjected paws was calculated for each animal. The change in paw weight was compared with that in control animals (treated with water/or Tween-water) and expressed as a percent inhibition of the edema % ICPE values (Table 2). Values % ICPE are the mean from two different experiments (n=6 animals each time) with a standard error of the mean less than 10%.

Structure (SMILES): COc1ccc2nc(Cl)c(/C=[N+](\[O-])C(C)(C)C)cc2c1 [Compound 23, (Z)—N-tert-Butyl-1-(2-chloro-6-methoxyquinolin-3-yl)methanimine oxide]
- ICPE %: 48.5 ± 0.8 %
